Experiments:
LRRK2 wild type enzyme = LRRK2 wild type enzyme (Homo sapiens, UniProt Q5S007); assay: Biochemical Assay: LRRK2 TR-FRET (LanthaScreen) kinase assay with LRRKtide substrate; details: LRRK2 Inhibition, Table 8
In short: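 TR-FRET detection (Tb-labelled phospho-LRRKtide antibody, EDTA stop, 30 min) followed a 120 min, 23 °C reaction of 3 nM wild-type human LRRK2 with LRRKtide (400 nM) and ATP (25 μM) in Tris pH 8.0. Compounds: 11-point 3-fold series from 10 μM, 15 min enzyme preincubation.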

[1] = molecular target: T1, wild type LRRK2 overexpressed in recombinant HEK-293T cells (Homo sapiens, UniProt Q5S007); assay: pS935 LRRK2 Cell Assay (HTRF, phospho-LRRK2 Ser935); assay type: cell-based; details: LRRK2 Inhibition, Table 8, 2 hours compound incubation
T1 construct: host or cells: HEK293T (transient transfection with pCMV-LRRK2 WT plasmid)
T1 sequence (Q5S007 whole entry): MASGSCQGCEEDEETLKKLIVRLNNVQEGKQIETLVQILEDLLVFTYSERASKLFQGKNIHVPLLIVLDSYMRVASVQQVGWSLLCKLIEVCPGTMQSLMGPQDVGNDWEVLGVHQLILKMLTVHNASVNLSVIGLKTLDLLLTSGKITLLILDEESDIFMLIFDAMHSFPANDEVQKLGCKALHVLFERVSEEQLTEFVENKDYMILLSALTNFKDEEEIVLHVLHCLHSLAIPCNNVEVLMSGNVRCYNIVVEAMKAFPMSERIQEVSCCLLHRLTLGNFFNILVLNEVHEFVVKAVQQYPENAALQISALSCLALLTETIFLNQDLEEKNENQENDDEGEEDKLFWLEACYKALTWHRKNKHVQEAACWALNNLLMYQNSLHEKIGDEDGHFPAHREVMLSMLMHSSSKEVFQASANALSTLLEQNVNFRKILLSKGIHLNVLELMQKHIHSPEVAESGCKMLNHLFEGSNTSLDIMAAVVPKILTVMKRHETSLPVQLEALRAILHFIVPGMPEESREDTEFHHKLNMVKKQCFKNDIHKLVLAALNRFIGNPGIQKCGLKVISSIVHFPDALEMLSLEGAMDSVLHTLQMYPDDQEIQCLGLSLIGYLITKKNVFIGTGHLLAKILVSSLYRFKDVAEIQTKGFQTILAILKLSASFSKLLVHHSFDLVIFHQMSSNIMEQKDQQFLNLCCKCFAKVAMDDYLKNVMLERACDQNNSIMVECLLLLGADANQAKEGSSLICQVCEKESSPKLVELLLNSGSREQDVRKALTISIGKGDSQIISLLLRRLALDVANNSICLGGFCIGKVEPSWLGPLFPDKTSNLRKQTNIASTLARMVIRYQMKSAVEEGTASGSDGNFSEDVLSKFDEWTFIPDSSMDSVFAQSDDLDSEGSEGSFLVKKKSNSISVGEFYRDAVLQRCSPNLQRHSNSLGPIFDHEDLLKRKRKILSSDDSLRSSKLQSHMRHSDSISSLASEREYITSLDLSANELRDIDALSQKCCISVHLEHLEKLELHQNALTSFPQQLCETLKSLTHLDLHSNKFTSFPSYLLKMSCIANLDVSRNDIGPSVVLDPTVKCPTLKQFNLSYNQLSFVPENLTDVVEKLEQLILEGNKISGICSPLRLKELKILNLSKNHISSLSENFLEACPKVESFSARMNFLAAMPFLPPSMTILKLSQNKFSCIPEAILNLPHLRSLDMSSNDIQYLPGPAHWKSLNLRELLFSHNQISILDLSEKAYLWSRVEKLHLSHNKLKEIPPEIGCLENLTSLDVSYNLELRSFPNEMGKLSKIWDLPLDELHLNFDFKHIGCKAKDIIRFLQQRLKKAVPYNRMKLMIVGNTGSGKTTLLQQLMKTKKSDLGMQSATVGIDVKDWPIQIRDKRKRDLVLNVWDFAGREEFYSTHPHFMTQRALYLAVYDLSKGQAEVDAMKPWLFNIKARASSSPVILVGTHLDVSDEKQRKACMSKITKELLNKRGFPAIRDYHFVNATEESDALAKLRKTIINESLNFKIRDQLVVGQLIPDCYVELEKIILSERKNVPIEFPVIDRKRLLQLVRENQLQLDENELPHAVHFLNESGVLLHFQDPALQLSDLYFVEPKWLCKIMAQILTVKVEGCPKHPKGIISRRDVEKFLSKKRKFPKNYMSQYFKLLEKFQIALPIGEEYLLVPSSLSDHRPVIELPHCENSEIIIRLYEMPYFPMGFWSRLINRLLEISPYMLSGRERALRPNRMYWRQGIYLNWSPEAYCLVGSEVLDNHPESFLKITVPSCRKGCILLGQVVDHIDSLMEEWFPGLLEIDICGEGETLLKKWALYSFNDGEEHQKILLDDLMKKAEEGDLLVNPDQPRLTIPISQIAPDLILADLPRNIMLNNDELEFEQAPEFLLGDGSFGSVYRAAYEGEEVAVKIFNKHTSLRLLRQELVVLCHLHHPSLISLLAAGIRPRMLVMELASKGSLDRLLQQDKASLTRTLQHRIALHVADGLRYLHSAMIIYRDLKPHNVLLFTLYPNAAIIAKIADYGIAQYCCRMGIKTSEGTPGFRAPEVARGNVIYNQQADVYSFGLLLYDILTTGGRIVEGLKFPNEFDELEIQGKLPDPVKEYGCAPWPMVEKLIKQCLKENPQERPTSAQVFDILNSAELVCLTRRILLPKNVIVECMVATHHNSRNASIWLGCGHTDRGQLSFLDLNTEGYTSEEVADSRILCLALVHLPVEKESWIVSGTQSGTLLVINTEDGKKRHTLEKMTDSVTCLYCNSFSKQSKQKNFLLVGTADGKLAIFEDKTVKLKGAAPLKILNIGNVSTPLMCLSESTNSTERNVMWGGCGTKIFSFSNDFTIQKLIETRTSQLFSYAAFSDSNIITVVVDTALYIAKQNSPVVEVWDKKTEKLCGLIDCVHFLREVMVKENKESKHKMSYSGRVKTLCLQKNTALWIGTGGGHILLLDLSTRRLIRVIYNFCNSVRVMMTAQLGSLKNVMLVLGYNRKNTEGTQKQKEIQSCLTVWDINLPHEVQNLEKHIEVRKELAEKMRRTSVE
In short: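 Phospho-Ser935 LRRK2 measured by two-antibody HTRF (Eu-cryptate donor, d2 acceptor; 665/615 nm ratio) after overnight detection at 23° C. Before lysis, transiently LRRK2-transfected HEK-293T cells were exposed 2 h at 37° C to a 9-point, 3-fold series from 10 μM, with DMSO at 0.2%.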

Chain of LRRK2 wild type enzyme (Q5S007 whole entry): as above

`COc1ccc2ncc3nc(CC(=O)NC4CC4)n([C@@H]4CCO[C@H](C)C4)c3c2c1` [Compound 160, N-cyclopropyl-2-{8-methoxy-1-[(2R,4R)-2-methyloxan-4-yl]-1H-imidazo[4,5-c]quinolin-2-yl}acetamide] gave an IC50 (LRRK2 wild type enzyme) of 2.82 nM and an IC50 [1] of 332 nM.
`C[C@@H]1C[C@H](n2c(C3CC(=O)N(C4CCOCC4)C3)nc3cnc4ccc(C#N)cc4c32)CCO1` (mixture of isomers) [Compound 64, 1-[(2R,4R)-2-methyloxan-4-yl]-2-[1-(oxan-4-yl)-5-oxopyrrolidin-3-yl]-1H-imidazo[4,5-c]quinoline-8-carbonitrile] was tested, and the IC50 (LRRK2 wild type enzyme) was 3.71 nM and the IC50 [1] was 313 nM.
`Cc1ccc(NC(=O)Cc2nc3cnc4ccc(C#N)cc4c3n2[C@@H]2CCO[C@H](C)C2)c(C)n1` [Compound 270, N-(2,6-dimethyl-3-pyridyl){3-[(2R,4R)-2-methyltetrahydro-2H-pyran-4-yl]-12-cyano-3,5,8-triazatricyclo[7.4.0.0^2,6]trideca-1,4,6,8,10,12-hexaen-4-yl}acetamide] gave an IC50 (LRRK2 wild type enzyme) of 0.504 nM and an IC50 [1] of 7.36 nM.
Work on `Cc1oncc1CNC(=O)Cc1nc2cnc3ccc(C#N)cc3c2n1[C@@H]1CCO[C@H](C)C1` [Compound 179, 2-(8-cyano-1-((2R,4R)-2-methyltetrahydro-2H-pyran-4-yl)-1H-imidazo[4,5-c]quinolin-2-yl)-N-((5-methylisoxazol-4-yl)methyl)acetamide] yielded an IC50 (LRRK2 wild type enzyme) of 0.337 nM and an IC50 [1] of 17.1 nM.
`C[C@@H]1C[C@H](n2c(C3CN(S(C)(=O)=O)C3)nc3cnc4ccc(C#N)cc4c32)CCO1` [Compound 67, 2-(1-methanesulfonylazetidin-3-yl)-1-[(2R,4R)-2-methyloxan-4-yl]-1H-imidazo[4,5-c]quinoline-8-carbonitrile] showed an IC50 (LRRK2 wild type enzyme) of 3.03 nM and an IC50 [1] of 500 nM.
Work on `C[C@@H]1C[C@H](n2c(C3CN(C(=O)C4CC4)C3)nc3cnc4ccc(C#N)cc4c32)CCO1` [Compound 68, 2-(1-cyclopropanecarbonylazetidin-3-yl)-1-[(2R,4R)-2-methyloxan-4-yl]-1H-imidazo[4,5-c]quinoline-8-carbonitrile] yielded an IC50 (LRRK2 wild type enzyme) of 7.43 nM and an IC50 [1] of 1140 nM.
With `C[C@@H]1C[C@H](n2c(CC3CN(C(=O)c4ccccn4)C3)nc3cnc4ccc(C#N)cc4c32)CCO1` [Compound 56, 1-[(2R,4R)-2-methyloxan-4-yl]-2-{[1-(pyridine-2-carbonyl)azetidin-3-yl]methyl}-1H-imidazo[4,5-c]quinoline-8-carbonitrile] the IC50 (LRRK2 wild type enzyme) was 2.39 nM and the IC50 [1] was 158 nM.
For `Cc1cccc(CNC(=O)Cc2nc3cnc4ccc(C#N)cc4c3n2[C@@H]2CCO[C@H](C)C2)n1` [Compound 152, 2-{8-cyano-1-[(2R,4R)-2-methyloxan-4-yl]-1H-imidazo[4,5-c]quinolin-2-yl}-N-[(6-methylpyridin-2-yl)methyl]acetamide], the IC50 (LRRK2 wild type enzyme) was 0.318 nM and the IC50 [1] was 3.4 nM.
With `C[C@@H]1C[C@H](n2c([C@@H]3CCN(S(=O)(=O)C4CC4)C3)nc3cnc4ccc(C#N)cc4c32)CCO1` [Compound 24, 2-[(3R)-1-(cyclopropanesulfonyl)pyrrolidin-3-yl]-1-[(2R,4R)-2-methyloxan-4-yl]-1H-imidazo[4,5-c]quinoline-8-carbonitrile] the IC50 (LRRK2 wild type enzyme) was 5.4 nM and the IC50 [1] was 677 nM.
In the case of `C[C@@H]1C[C@H](n2c(CNc3nccn3C)nc3cnc4ccc(C#N)cc4c32)CCO1` [Compound 12, 2-{[(1-methyl-1H-imidazol-2-yl)amino]methyl}-1-[(2R,4R)-2-methyloxan-4-yl]-1H-imidazo[4,5-c]quinoline-8-carbonitrile], the IC50 (LRRK2 wild type enzyme) is reported as 9.07 nM and the IC50 [1] is reported as > 10000 nM.
For `C[C@@H]1C[C@H](n2c(C3CC(=O)N([C@H]4CCCOC4)C3)nc3cnc4ccc(C#N)cc4c32)CCO1` (stereo partly drawn) [Compound 52, 1-[(2R,4R)-2-methyloxan-4-yl]-2-{1-[(3S)-oxan-3-yl]-5-oxopyrrolidin-3-yl}-1H-imidazo[4,5-c]quinoline-8-carbonitrile], the IC50 (LRRK2 wild type enzyme) was 2.91 nM and the IC50 [1] was 401 nM.
With `C[C@@H]1C[C@H](n2c(CC(=O)NCc3cccnc3)nc3cnc4ccc(C#N)cc4c32)CCO1` [Compound 83, 2-{8-cyano-1-[(2R,4R)-2-methyloxan-4-yl]-1H-imidazo[4,5-c]quinolin-2-yl}-N-[(pyridin-3-yl)methyl]acetamide] the IC50 (LRRK2 wild type enzyme) was 0.33 nM and the IC50 [1] was 25.1 nM.
`Cc1ncc(NC(=O)Cc2nc3cnc4ccc(C#N)cc4c3n2[C@@H]2CCO[C@H](C)C2)c(C)n1` [Compound 261, N-(2,4-dimethyl-5-pyrimidinyl){3-[(2R,4R)-2-methyltetrahydro-2H-pyran-4-yl]-12-cyano-3,5,8-triazatricyclo[7.4.0.0^2,6]trideca-1,4,6,8,10,12-hexaen-4-yl}acetamide] showed an IC50 (LRRK2 wild type enzyme) of 0.512 nM and an IC50 [1] of 10.4 nM.
In the case of `COc1cc(C(F)(F)F)ncc1NC(=O)Cc1nc2cnc3ccc(C#N)cc3c2n1[C@@H]1CCO[C@H](C)C1` [Compound 228, N-[4-methoxy-6-(trifluoromethyl)-3-pyridyl]{3-[(2R,4R)-2-methyltetrahydro-2H-pyran-4-yl]-12-cyano-3,5,8-triazatricyclo[7.4.0.0^2,6]trideca-1,4,6,8,10,12-hexaen-4-yl}acetamide], the IC50 (LRRK2 wild type enzyme) is reported as 0.36 nM and the IC50 [1] is reported as 3.17 nM.
Compound `Cc1cc(NC(=O)Cc2nc3cnc4ccc(C#N)cc4c3n2[C@@H]2CCO[C@H](C)C2)no1` [Compound 156, 2-{8-cyano-1-[(2R,4R)-2-methyloxan-4-yl]-1H-imidazo[4,5-c]quinolin-2-yl}-N-(5-methyl-1,2-oxazol-3-yl)acetamide] has an IC50 (LRRK2 wild type enzyme) of 0.529 nM and an IC50 [1] of 6.83 nM.
`C[C@@H]1C[C@H](n2c(CN3CCOCC3=O)nc3cnc4ccc(C#N)cc4c32)CCO1` [Compound 78, 1-[(2R,4R)-2-methyloxan-4-yl]-2-[(3-oxomorpholin-4-yl)methyl]-1H-imidazo[4,5-c]quinoline-8-carbonitrile] showed an IC50 (LRRK2 wild type enzyme) of 12.2 nM and an IC50 [1] of 1010 nM.
Work on `COc1cc(C2CC2)ncc1NC(=O)Cc1nc2cnc3ccc(C#N)cc3c2n1[C@@H]1CCO[C@H](C)C1` [Compound 213, N-(6-cyclopropyl-4-methoxy-3-pyridyl){3-[(2R,4R)-2-methyltetrahydro-2H-pyran-4-yl]-12-cyano-3,5,8-triazatricyclo[7.4.0.0^2,6]trideca-1,4,6,8,10,12-hexaen-4-yl}acetamide] yielded an IC50 (LRRK2 wild type enzyme) of 0.404 nM and an IC50 [1] of 4.01 nM.
`Cc1nn(C)cc1NC(=O)Cc1nc2cnc3ccc(C#N)cc3c2n1[C@@H]1CCO[C@H](C)C1` [Compound 231, N-(1-methyl-3-methyl-4-pyrazolyl){3-[(2R,4R)-2-methyltetrahydro-2H-pyran-4-yl]-12-cyano-3,5,8-triazatricyclo[7.4.0.0^2,6]trideca-1,4,6,8,10,12-hexaen-4-yl}acetamide] showed an IC50 (LRRK2 wild type enzyme) of 0.621 nM and an IC50 [1] of 13.6 nM.
`C[C@@H]1C[C@H](n2c(CNC(=O)OC3CC3)nc3cnc4ccc(C#N)cc4c32)CCO1` [Compound 10, cyclopropyl N-({8-cyano-1-[(2R,4R)-2-methyloxan-4-yl]-1H-imidazo[4,5-c]quinolin-2-yl}methyl)carbamate] showed an IC50 (LRRK2 wild type enzyme) of 1.92 nM and an IC50 [1] of 165 nM.
`C[C@@H]1C[C@H](n2c(CC(=O)NC3CCC3)nc3cnc4ccc(C#N)cc4c32)CCO1` [Compound 84, 2-{8-cyano-1-[(2R,4R)-2-methyloxan-4-yl]-1H-imidazo[4,5-c]quinolin-2-yl}-N-cyclobutylacetamide] showed an IC50 (LRRK2 wild type enzyme) of 0.436 nM and an IC50 [1] of 26.2 nM.
`C[C@@H]1C[C@H](n2c(C3CC(=O)N([C@H](C)C4CC4)C3)nc3cnc4ccc(C#N)cc4c32)CCO1` (stereo partly drawn) [Compound 34, 2-{1-[(1R)-1-cyclopropylethyl]-5-oxopyrrolidin-3-yl}-1-[(2R,4R)-2-methyloxan-4-yl]-1H-imidazo[4,5-c]quinoline-8-carbonitrile] gave an IC50 (LRRK2 wild type enzyme) of 4.22 nM and an IC50 [1] of 273 nM.
For `C[C@@H]1C[C@H](n2c(CC(=O)NC3(C(F)(F)F)CC3)nc3cnc4ccc(C#N)cc4c32)CCO1` [Compound 287, N-1-(trifluoromethyl)cyclopropyl{3-[(2R,4R)-2-methyltetrahydro-2H-pyran-4-yl]-12-cyano-3,5,8-triazatricyclo[7.4.0.0^2,6]trideca-1,4,6,8,10,12-hexaen-4-yl}acetamide], the IC50 (LRRK2 wild type enzyme) was 1.61 nM and the IC50 [1] was 118 nM.
Work on `N#Cc1ccc2ncc3nc(CC(=O)NCC4CC4)n(C4CCCC4)c3c2c1` [Compound 109, 2-{8-cyano-1-cyclopentyl-1H-imidazo[4,5-c]quinolin-2-yl}-N— (cyclopropylmethyl)acetamide] yielded an IC50 (LRRK2 wild type enzyme) of 1.82 nM and an IC50 [1] of 172 nM.
With `C[C@@H]1C[C@H](n2c(CC(=O)Nc3ccnn3C)nc3cnc4ccc(C#N)cc4c32)CCO1` [Compound 169, 2-{8-cyano-1-[(2R,4R)-2-methyloxan-4-yl]-1H-imidazo[4,5-c]quinolin-2-yl}-N-(1-methyl-1H-pyrazol-5-yl)acetamide] the IC50 (LRRK2 wild type enzyme) was 0.319 nM and the IC50 [1] was 14.5 nM.
`C[C@@H]1C[C@H](n2c(CN)nc3cnc4ccc(C#N)cc4c32)CCO1` [Compound 32, 2-(aminomethyl)-1-[(2R,4R)-2-methyloxan-4-yl]-1H-imidazo[4,5-c]quinoline-8-carbonitrile] showed an IC50 (LRRK2 wild type enzyme) of 5.55 nM and an IC50 [1] of 425 nM.
`CCOc1ncccc1NC(=O)Cc1nc2cnc3ccc(C#N)cc3c2n1[C@@H]1CCO[C@H](C)C1` [Compound 275, N-(2-ethoxy-3-pyridyl){3-[(2R,4R)-2-methyltetrahydro-2H-pyran-4-yl]-12-cyano-3,5,8-triazatricyclo[7.4.0.0^2,6]trideca-1,4,6,8,10,12-hexaen-4-yl}acetamide] showed an IC50 (LRRK2 wild type enzyme) of 0.478 nM and an IC50 [1] of 2.41 nM.
Work on `C[C@@H]1C[C@H](n2c(CC(=O)Nc3cnccn3)nc3cnc4ccc(Cl)cc4c32)CCO1` [Compound 371, N-2-pyrazinyl{3-[(2R,4R)-2-methyltetrahydro-2H-pyran-4-yl]-12-chloro-3,5,8-triazatricyclo[7.4.0.0^2,6]trideca-1(9),2(6),4,7,10,12-hexaen-4-yl}acetamide] yielded an IC50 (LRRK2 wild type enzyme) of 1.13 nM and an IC50 [1] of 5 nM.

From US20250270209A1 (INTERLINE THERAPEUTICS, INC., priority 2022, published 2025)
